Data: PMC7822874, “Chemoprotective antimalarials identified through quantitative high-throughput screening of Plasmodium blood and liver stage parasites” (Scientific Reports, 2021)
Like-named read-outs stand apart in the source and are kept apart here.

Key:
Format in all cases: cell-based, Plasmodium falciparum
[1] = system: P. falciparum Dd2 Cytb V259L; assay: SYBR Green ABS proliferation assay, NCGC00473217 selected clone F06; conditions: Plasmodium falciparum
Experimental: (§1) As resistance selection studies implicated the parasite cytochrome bc1 complex in mediating reduced parasite susceptibility to both NCGC00473217 and NCGC00374598, we leveraged these drug-selected parasites to test for altered drug response to a panel of antimalarial compounds.
(§2) The P. falciparum parasite Dd2 line was cultured in vitro using standard conditions. […] Tissue culture flasks and assay plates were incubated at 37 °C under a gas mixture of 5% CO2, 5% O2 and 90% N2. […] Significant differences were assessed using two-sided Student’s t-tests. All HTS assays were stopped and read at 72 h. Percent response values represent relative growth as judged by SYBR Green-I fluorescence intensity values normalized to controls.
(§3) Fresh uninfected RBCs (0.5% hematocrit) were added on day 7 and media was changed every other day. […] Resistant parasites were maintained under drug media at a volume of 50 mL until a high parasitemia (> 5%) was achieved. Aliquots of the bulk resistant cultures were frozen in cryovials before cloning by limiting dilution in 96-well plates (seeded at 0.25 or 0.5 parasites/well)[70]. After 3 weeks of cloning, we screened for positive wells by flow cytometry with SYBR Green-stained cells. […] Parasites were harvested by saponin lysis at the trophozoite stage and genomic DNA was extracted using the QIAamp DNA Blood Midi Kit (Qiagen, Germantown, MD)[71].

[2] = system: P. falciparum Dd2 Cytb G131S; assay: SYBR Green ABS proliferation assay, NCGC00374598 selected clone C11; conditions: Plasmodium falciparum
Experimental: as §1, §2, §3

[3] = system: P. falciparum Dd2 Cytb F123L; assay: SYBR Green ABS proliferation assay, NCGC00473217 selected clone G08; conditions: Plasmodium falciparum
Experimental: as §1, §2, §3

[4] = system: P. falciparum Dd2 Cytb A122D; assay: SYBR Green ABS proliferation assay, NCGC00473217 selected clone F12; conditions: Plasmodium falciparum
Experimental: as §1, §2, §3

[5] = system: P. falciparum Dd2 (clone B2) asexual blood stage parasites; assay: P. falciparum Dd2 asexual blood stage SYBR Green-I 72 h proliferation assay (qHTS); conditions: Plasmodium falciparum, DD2, Dd2 parental; Hill fit, averaged from three independent replicates; top concentration 29 µM; read-out: Average AC50 (Log[M]), Dd2 (converted)
[6] = DD2, cytochrome b mutant line, third value triple, c9, […], read-out: log AC50, mean (converted)
[7] = DD2, cytochrome b mutant line, second value triple, c6, […], read-out: log AC50, mean (converted)
[8] = DD2, cytochrome b mutant line, fifth value triple, c15, […], read-out: log AC50, mean (converted)
[9] = DD2, cytochrome b mutant line, fourth value triple, c12, […], read-out: log AC50, mean (converted)
[10] = DD2, […], averaged from three independent replicates, top concentration 29 µM, read-out: Average AC50 (Log[M]), NCGC00473217 clone G08 (Cytb F123L) (converted)
[11] = DD2, […], averaged from three independent replicates, top concentration 29 µM, read-out: Average AC50 (Log[M]), NCGC00473217 clone F12 (Cytb A122D) (converted)
[12] = DD2, […], averaged from three independent replicates, top concentration 29 µM, read-out: Average AC50 (Log[M]), NCGC00374598 clone C11 (Cytb G131S) (converted)
[13] = DD2, […], averaged from three independent replicates, top concentration 29 µM, read-out: Average AC50 (Log[M]), NCGC00473217 clone F06 (Cytb V259L) (converted)

SMILES | AC50 [1, 6] [M] | AC50 [2, 7] [M] | AC50 [3, 8] [M] | AC50 [4, 9] [M] | AC50 [3, 10] [M] | AC50 [4, 11] [M] | AC50 [2, 12] [M] | AC50 [5] [M] | AC50 [1, 13] [M]
COc1ccc(CN2CCc3nc(C(C)C)nc(-c4ccc(O)cc4)c3CC2)cc1 [NCGC00480318-01] | 9.08e-06 | 5.11e-06 | 9.08e-06 | 7.78e-06 | – | – | – | – | –
NS(=O)(=O)c1cc2c(cc1Cl)NC(C1CC3C=CC1C3)NS2(=O)=O (stereo not drawn) [NCGC00015288-06] | – | – | – | – | 5.64e-07 | 7.1e-07 | – | – | –
COc1ccc(-c2nc(C(C)C)nc3c2CCN(S(=O)(=O)c2cccc(C(F)(F)F)c2)CC3)cc1 [NCGC00479522-01] | 1.28e-05 | 1.1e-05 | 1.14e-05 | 1.68e-05 | – | – | – | – | –
COc1ccc(CN2CCc3nc(C4CC4)nc(-c4ccc(O)cc4)c3CC2)cc1 [NCGC00480355-01] | 1.61e-05 | 1.06e-05 | 1.23e-05 | 1.19e-05 | – | – | – | – | –
CCCN1C(CC(C)C)=N[S+](=O)([O-])c2cc(NC(=O)Nc3cccs3)ccc21 [NCGC00537523-01] | 5.22e-06 | 2.67e-06 | 9.66e-06 | 9.29e-06 | – | – | – | – | –
CCCN1C(CC(C)C)=N[S+](=O)([O-])c2cc(NC(=O)c3ccc(F)c(F)c3)ccc21 [NCGC00531540-01] | – | – | – | – | 7.1e-07 | 3.99e-07 | 7.96e-07 | 5.22e-06 | –
N[S+](=O)([O-])c1cc2c(cc1Cl)NCN[S+]2(=O)[O-] [NCGC00015508-23] | – | – | – | – | – | 1.78e-07 | 8.93e-07 | 7.1e-07 | 5.64e-07
CC(C)CC1=N[S+](=O)([O-])c2cc(NC(=O)c3cccs3)ccc2N1C [NCGC00521057-01] | – | – | – | – | 1.89e-07 | 1e-06 | 2.24e-07 | 1.85e-06 | –
CCCN1C(CC(C)C)=N[S+](=O)([O-])c2cc(NC(=O)c3ccccc3OC)ccc21 [NCGC00531762-01] | 2e-06 | 1e-06 | 2.52e-06 | 1.12e-06 | – | – | – | – | –
CC(C)c1nc2c(c(-c3ccc(O)cc3)n1)CCN(C(=O)c1cccc(Cl)c1)CC2 [NCGC00480331-01] | 1.81e-05 | 1.74e-05 | 1.19e-05 | 1.68e-05 | – | – | – | – | –
CCCN1C(CC2CCCCC2)=N[S+](=O)([O-])c2cc(NC(=O)c3ccc(F)cc3)ccc21 [NCGC00532335-01] | 5.32e-06 | 8.61e-07 | 2.82e-07 | 3.3e-06 | – | – | – | – | –
CCCN1C(CC(C)C)=N[S+](=O)([O-])c2cc(NC(=O)c3ccc(Br)c(F)c3)ccc21 [NCGC00531761-01] | 3.36e-06 | 1.12e-06 | 7.96e-08 | 1e-06 | – | – | – | – | –
CCCN1C(CC(F)(F)F)=N[S+](=O)([O-])c2cc(NC(=O)c3cccs3)ccc21 [NCGC00532340-01] | 2e-06 | 6.32e-06 | 7.1e-06 | 7.1e-06 | – | – | – | – | –
CCCN1C(CC(C)C)=N[S+](=O)([O-])c2cc(NC(=O)COC)ccc21 [NCGC00521098-01] | – | – | – | – | – | 1.12e-05 | 3.56e-06 | 8.93e-06 | 1.68e-05
CCCN1C(CC(C)C)=N[S+](=O)([O-])c2cc(NC(=O)c3cc4ccccc4o3)ccc21 [NCGC00521880-01] | – | – | – | – | 1.34e-06 | 3.99e-06 | – | – | 4.48e-07
CCCN1C(CC(C)C)=N[S+](=O)([O-])c2cc(NC(=O)c3cnon3)ccc21 [NCGC00521034-01] | – | – | – | – | 1.59e-06 | – | – | – | 1e-05
CCCN1C(CC(C)C)=N[S+](=O)([O-])c2cc(NC(=O)c3ccc(F)cc3)ccc21 [NCGC00521139-01] | – | – | – | – | – | 4.74e-07 | 3.56e-07 | 5.22e-07 | 5.64e-07
CC(C)CC1=N[S+](=O)([O-])c2cc(NC(=O)c3cccs3)ccc2N1 [NCGC00532401-01] | – | 2.82e-07 | 2.52e-09 | 7.1e-06 | – | – | – | – | –
